From ChEMBL document CHEMBL4145521, “Regioselective synthesis of 3,4-diaryl-5-unsubstituted isoxazoles, analogues of natural cytostatic combretastatin A4” (Eur J Med Chem, 2018)

Experiments:
Assay type in all cases: functional
EKVX [1] = experiment: Cytotoxicity against human EKVX cells assessed as cell growth at 0.01 uM incubated for 48 hrs by sulforhodamine B assay relative to control; conditions: read-out: Activity
A549 = experiment: Cytotoxicity against human A549/ATCC cells assessed as cell growth at 0.01 uM incubated for 48 hrs by sulforhodamine B assay relative to control; conditions: A549, 48 h, read-out: Activity
NCI-H23 = experiment: Cytotoxicity against human NCI-H23 cells assessed as cell growth at 100 uM incubated for 48 hrs by sulforhodamine B assay relative to control; conditions: NCI-H23, 48 h, read-out: Activity
CCRF-CEM = experiment: Cytotoxicity against human CCRF-CEM cells assessed as cell growth at 0.01 uM incubated for 48 hrs by sulforhodamine B assay relative to control; conditions: read-out: Activity
UACC-62 [2] = experiment: Cytotoxicity against human UACC62 cells incubated for 48 hrs by sulforhodamine B assay; conditions: UACC-62, 48 h
SK-MEL-2 = experiment: Cytotoxicity against human SK-MEL-2 cells incubated for 48 hrs by sulforhodamine B assay; conditions: SK-MEL-2, 48 h
SR = experiment: Cytotoxicity against human SR cells assessed as cell growth at 0.1 uM incubated for 48 hrs by sulforhodamine B assay relative to control; conditions: read-out: Activity
SN12C [3] = experiment: Cytotoxicity against human SN12C cells assessed as cell growth at 0.01 uM incubated for 48 hrs by sulforhodamine B assay relative to control; conditions: read-out: Activity
SF-268 = experiment: Cytotoxicity against human SF268 cells assessed as cell growth at 1 uM incubated for 48 hrs by sulforhodamine B assay relative to control; conditions: SF-268, 48 h, read-out: Activity
DU-145 = experiment: Cytotoxicity against human DU145 cells incubated for 48 hrs by sulforhodamine B assay; conditions: DU-145, 48 h
SF-539 = experiment: Cytotoxicity against human SF539 cells assessed as cell growth at 0.1 uM incubated for 48 hrs by sulforhodamine B assay relative to control; conditions: SF-539, 48 h, read-out: Activity
NCI-H322M [4] = experiment: Cytotoxicity against human NCI-H322M cells assessed as cell growth at 0.1 uM incubated for 48 hrs by sulforhodamine B assay relative to control; conditions: read-out: Activity
K562 = experiment: Cytotoxicity against human K562 cells assessed as cell growth at 0.01 uM incubated for 48 hrs by sulforhodamine B assay relative to control; conditions: K562, 48 h, read-out: Activity
ACHN [5] = experiment: Cytotoxicity against human ACHN cells assessed as cell growth at 1 uM incubated for 48 hrs by sulforhodamine B assay relative to control; conditions: read-out: Activity
SK-OV-3 = experiment: Cytotoxicity against human SKOV3 cells assessed as cell growth at 100 uM incubated for 48 hrs by sulforhodamine B assay relative to control; conditions: SK-OV-3, 48 h, read-out: Activity
NCI-H522 = experiment: Cytotoxicity against human NCI-H522 cells assessed as cell growth at 10 uM incubated for 48 hrs by sulforhodamine B assay relative to control; conditions: NCI-H522, 48 h, read-out: Activity
ACHN [6] = experiment: Cytotoxicity against human ACHN cells assessed as cell growth at 0.01 uM incubated for 48 hrs by sulforhodamine B assay relative to control; conditions: read-out: Activity
EKVX [7] = experiment: Cytotoxicity against human EKVX cells incubated for 48 hrs by sulforhodamine B assay
SN12C [8] = experiment: Cytotoxicity against human SN12C cells assessed as cell growth at 100 uM incubated for 48 hrs by sulforhodamine B assay relative to control; conditions: read-out: Activity
MDA-MB-231 = experiment: Cytotoxicity against human MDA-MB-231 cells assessed as cell growth at 0.01 uM incubated for 48 hrs by sulforhodamine B assay relative to control; conditions: MDA-MB-231, 48 h, read-out: Activity
NCI-H226 = experiment: Cytotoxicity against human NCI-H226 cells assessed as cell growth at 10 uM incubated for 48 hrs by sulforhodamine B assay relative to control; conditions: NCI-H226, 48 h, read-out: Activity
NCI-H322M [9] = experiment: Cytotoxicity against human NCI-H322M cells assessed as cell growth at 0.01 uM incubated for 48 hrs by sulforhodamine B assay relative to control; conditions: read-out: Activity
CAKI-1 = experiment: Cytotoxicity against human Caki1 cells assessed as cell growth at 0.01 uM incubated for 48 hrs by sulforhodamine B assay relative to control; conditions: CAKI-1, 48 h, read-out: Activity
UO-31 = experiment: Cytotoxicity against human UO31 cells assessed as cell growth at 0.01 uM incubated for 48 hrs by sulforhodamine B assay relative to control; conditions: UO-31, 48 h, read-out: Activity
MDA-MB-468 [10] = experiment: Cytotoxicity against human MDA-MB-468 cells assessed as cell growth at 10 uM incubated for 48 hrs by sulforhodamine B assay relative to control; conditions: MDA-MB-468, 48 h, read-out: Activity
HL-60(TB) = experiment: Cytotoxicity against human HL-60(TB) cells assessed as cell growth at 100 uM incubated for 48 hrs by sulforhodamine B assay relative to control; conditions: HL-60, 48 h, read-out: Activity
U-251 = experiment: Cytotoxicity against human U251 cells assessed as cell growth at 10 uM incubated for 48 hrs by sulforhodamine B assay relative to control; conditions: U-251, 48 h, read-out: Activity
UACC-62 [11] = experiment: Cytotoxicity against human UACC62 cells assessed as cell growth at 100 uM incubated for 48 hrs by sulforhodamine B assay relative to control; conditions: UACC-62, 48 h, read-out: Activity
786-0 = experiment: Cytotoxicity against human 786-0 cells assessed as cell growth at 10 uM incubated for 48 hrs by sulforhodamine B assay relative to control; conditions: 786-0, 48 h, read-out: Activity
SNB-75 = experiment: Cytotoxicity against human SNB75 cells assessed as cell growth at 100 uM incubated for 48 hrs by sulforhodamine B assay relative to control; conditions: SNB-75, 48 h, read-out: Activity
MDA-MB-468 [12] = experiment: Cytotoxicity against human MDA-MB-468 cells incubated for 48 hrs by sulforhodamine B assay; conditions: MDA-MB-468, 48 h
SN12C [13] = experiment: Cytotoxicity against human SN12C cells assessed as cell growth at 0.1 uM incubated for 48 hrs by sulforhodamine B assay relative to control; conditions: read-out: Activity
[14] = read-out: LC50 (the source's name)
[15] = read-out: pLC50 (the source's name) (converted)

Compound: COc1ccc(-c2nocc2-c2cc(OC)c(OC)c(OC)c2)cc1
- growth at 0.01 µM (EKVX [1]): 83%
- growth at 0.01 µM (A549): 100%
- growth at 100 µM (NCI-H23): -3%
- growth at 0.01 µM (CCRF-CEM): 111%
- GI50 (UACC-62 [2]; read-out: GI50): 0.0557 µM
- LC50 (concentration killing 50% of cells) (UACC-62 [2]; read-out: LC50): > 100 µM
- TGI (UACC-62 [2]; read-out: TGI): 12.9 µM
- GI50 (UACC-62 [2]; read-out: pGI50 (converted)): 0.0562 µM
- LC50 (concentration killing 50% of cells) (UACC-62 [2]; read-out: pLC50 (converted)): > 100 µM
- TGI (UACC-62 [2]; read-out: pTGI (converted)): 12.9 µM
- GI50 (SK-MEL-2; read-out: GI50): 0.0664 µM
- CC50 (SK-MEL-2; [14]): > 100 µM
- TGI (SK-MEL-2; read-out: TGI): 69.2 µM
- GI50 (SK-MEL-2; read-out: pGI50 (converted)): 0.0661 µM
- CC50 (SK-MEL-2; [15]): > 100 µM
- TGI (SK-MEL-2; read-out: pTGI (converted)): 69.2 µM
- growth at 0.1 µM (SR): 42%
- growth at 0.01 µM (SN12C [3]): 107%
- growth at 1 µM (SF-268): 45%
- GI50 (DU-145; read-out: GI50): 0.244 µM
- CC50 (DU-145; [14]): > 100 µM
- TGI (DU-145; read-out: TGI): > 100 µM
- GI50 (DU-145; read-out: pGI50 (converted)): 0.245 µM
- CC50 (DU-145; [15]): > 100 µM
- TGI (DU-145; read-out: pTGI): > 100 µM
- growth at 0.1 µM (SF-539): 65%
- growth at 0.1 µM (NCI-H322M [4]): 76%
- growth at 0.01 µM (K562): 103%
- growth at 1 µM (ACHN [5]): 52%
- growth at 100 µM (SK-OV-3): 5%
- growth at 10 µM (NCI-H522): -6%
- growth at 0.01 µM (ACHN [6]): 94%
- GI50 (EKVX [7]; read-out: GI50): 0.096 µM
- CC50 (EKVX [7]; [14]): > 100 µM
- TGI (EKVX [7]; read-out: TGI): > 100 µM
- GI50 (EKVX [7]; read-out: pGI50 (converted)): 0.0955 µM
- CC50 (EKVX [7]; [15]): > 100 µM
- TGI (EKVX [7]; read-out: pTGI): > 100 µM
- growth at 100 µM (SN12C [8]): -1%
- growth at 0.01 µM (MDA-MB-231): 98%
- growth at 10 µM (NCI-H226): 67%
- growth at 0.01 µM (NCI-H322M [9]): 95%
- growth at 0.01 µM (CAKI-1): 90%
- growth at 0.01 µM (UO-31): 90%
- growth at 10 µM (MDA-MB-468 [10]): 3%
- growth at 100 µM (HL-60(TB)): -15%
- growth at 10 µM (U-251): 19%
- growth at 100 µM (UACC-62 [11]): -38%
- growth at 10 µM (786-0): 24%
- growth at 100 µM (SNB-75): 9%
- GI50 (MDA-MB-468 [12]; read-out: GI50): 0.123 µM
- LC50 (MDA-MB-468 [12]; read-out: LC50): > 100 µM
- TGI (MDA-MB-468 [12]; read-out: TGI): 13.8 µM
- GI50 (MDA-MB-468 [12]; read-out: pGI50 (converted)): 0.123 µM
- LC50 (MDA-MB-468 [12]; read-out: pLC50 (converted)): > 100 µM
- TGI (MDA-MB-468 [12]; read-out: pTGI (converted)): 13.8 µM
- growth at 0.1 µM (SN12C [13]): 88%
